Patent publication US20200207759A1, “NEW PROPANAMINE DERIVATIVES FOR TREATING PAIN AND PAIN RELATED CONDITIONS” (ESTEVE PHARMACEUTICALS, S.A., priority 2017, published 2020)
Counter-ions that a name gives are not always drawn.

Legend:
[1] = target: Human norepinephrine transporter (NET) (Homo sapiens, UniProt P23975); test: Binding assay to human norepinephrine transporter (NET), [3H]-Nisoxetin; details: human NET enriched membranes, 5 nM [3H]-Nisoxetin; read-out: Ki (nM) NET Hum
In short: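 NET-enriched membranes (5 μg) incubated with 5 nM [3H]-nisoxetin in 50 mM Tris-HCl, 120 mM NaCl, 5 mM KCl, pH 7.4, for 60 min at 4 °C. Separation by filtration on PEI-soaked GF/C, then scintillation counting.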

[2] = target: Human α2δ-1 subunit of Cav2.2 calcium channel (Homo sapiens, UniProt P54289); test: Binding assay to human α2δ-1 subunit of Cav2.2 calcium channel, [3H]-Gabapentin; details: human α2δ-1 enriched membranes, 15 nM [3H]-Gabapentin; read-out: Ki (nM) alpha2delta Hum
In short: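 Human α2δ-1-enriched membranes incubated with 15 nM [3H]-gabapentin in 10 mM Hepes-KOH pH 7.4, 60 min at 27 °C; nonspecific binding defined with 10 μM pregabalin. Bound ligand separated by filtration on PEI-presoaked GF/C filters, washed with ice-cold 50 mM Tris-HCl pH 7.4, counted by scintillation.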

Sequence of Human α2δ-1 subunit of Cav2.2 calcium channel (P54289 25-1103): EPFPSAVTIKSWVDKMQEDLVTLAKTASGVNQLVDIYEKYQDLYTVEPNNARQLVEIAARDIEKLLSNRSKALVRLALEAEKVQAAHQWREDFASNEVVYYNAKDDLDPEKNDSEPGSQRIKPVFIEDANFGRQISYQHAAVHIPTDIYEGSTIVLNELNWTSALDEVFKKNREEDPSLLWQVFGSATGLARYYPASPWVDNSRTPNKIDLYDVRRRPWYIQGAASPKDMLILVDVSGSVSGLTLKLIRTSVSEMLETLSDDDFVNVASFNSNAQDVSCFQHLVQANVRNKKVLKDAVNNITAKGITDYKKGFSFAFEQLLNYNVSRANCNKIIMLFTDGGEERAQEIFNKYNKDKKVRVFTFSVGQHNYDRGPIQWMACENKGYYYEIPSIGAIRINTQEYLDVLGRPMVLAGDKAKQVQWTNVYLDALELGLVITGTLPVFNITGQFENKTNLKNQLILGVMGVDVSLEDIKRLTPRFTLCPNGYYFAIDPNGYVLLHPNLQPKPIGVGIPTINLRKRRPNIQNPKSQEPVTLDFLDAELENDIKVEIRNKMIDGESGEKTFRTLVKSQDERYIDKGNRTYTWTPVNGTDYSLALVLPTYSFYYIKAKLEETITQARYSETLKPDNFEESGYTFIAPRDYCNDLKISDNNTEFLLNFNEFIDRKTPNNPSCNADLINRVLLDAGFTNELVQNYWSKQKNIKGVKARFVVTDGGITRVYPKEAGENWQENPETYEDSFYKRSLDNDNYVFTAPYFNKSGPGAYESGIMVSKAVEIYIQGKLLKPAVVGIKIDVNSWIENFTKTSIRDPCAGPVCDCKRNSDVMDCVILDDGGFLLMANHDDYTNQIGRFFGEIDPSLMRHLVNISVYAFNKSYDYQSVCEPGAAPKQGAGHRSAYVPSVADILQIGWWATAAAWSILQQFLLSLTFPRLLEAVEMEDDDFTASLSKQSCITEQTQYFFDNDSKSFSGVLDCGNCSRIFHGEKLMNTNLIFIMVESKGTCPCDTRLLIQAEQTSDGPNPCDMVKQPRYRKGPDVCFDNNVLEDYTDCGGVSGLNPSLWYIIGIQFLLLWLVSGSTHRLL
Sequence of Human norepinephrine transporter (NET) (P23975 whole entry): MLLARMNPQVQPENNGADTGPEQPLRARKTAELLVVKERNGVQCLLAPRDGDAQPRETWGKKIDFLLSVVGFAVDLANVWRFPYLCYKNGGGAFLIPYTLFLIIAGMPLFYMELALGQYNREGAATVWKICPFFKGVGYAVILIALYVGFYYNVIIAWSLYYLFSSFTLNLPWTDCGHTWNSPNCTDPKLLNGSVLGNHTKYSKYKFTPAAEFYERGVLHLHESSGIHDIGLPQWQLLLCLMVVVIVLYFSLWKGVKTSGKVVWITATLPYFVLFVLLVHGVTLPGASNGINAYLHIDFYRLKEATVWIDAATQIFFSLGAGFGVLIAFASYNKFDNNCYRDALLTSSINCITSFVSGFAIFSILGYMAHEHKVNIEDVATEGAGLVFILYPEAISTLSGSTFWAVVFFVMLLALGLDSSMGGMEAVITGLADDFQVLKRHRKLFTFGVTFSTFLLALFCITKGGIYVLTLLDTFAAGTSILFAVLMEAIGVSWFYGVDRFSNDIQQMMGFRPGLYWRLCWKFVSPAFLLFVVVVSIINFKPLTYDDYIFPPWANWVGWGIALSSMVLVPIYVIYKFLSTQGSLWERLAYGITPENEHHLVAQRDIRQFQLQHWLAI

Row | SMILES | Ki [1] [nM] | Ki [2] [nM]
1 | CNCCC(c1cccs1)N1CC(C)(C)c2ncc(C#N)cc21 (stereo not drawn) [Example 97, 3,3-Dimethyl-1-(3-(methylamino)-1-(thiophen-2-yl)propyl)-2,3-dihydro-1H-pyrrolo[3,2-b]pyridine-6-carbonitrile] | > 1000 | < 100
2 | CNCCC(c1cccs1)N1CC(C)(C)c2nc(OC)ccc21 (stereo not drawn) [Example 99, 3-(5-Methoxy-3,3-dimethyl-2,3-dihydro-1H-pyrrolo[3,2-b]pyridin-1-yl)-N-methyl-3-(thiophen-2-yl)propan-1-amine] | 100 to 500 | 100 to 500
3 | CNCCC(c1cccs1)N1CC(C)(C)c2c(C#N)cccc21 (stereo not drawn) [Example 100, 3,3-Dimethyl-1-(3-(methylamino)-1-(thiophen-2-yl)propyl)indoline-4-carbonitrile] | > 1000 | < 100
4 | CNCC[C@@H](c1ccsc1)N1CCc2ncc(C)cc21 [Example 102, (S)—N-methyl-3-(6-methyl-2,3-dihydro-1H-pyrrolo[3,2-b]pyridin-1-yl)-3-(thiophen-3-yl)propan-1-amine] | > 1000 | 500 to 3000
5 | CNCC[C@H](c1ccsc1)N1CCc2ncc(C)cc21 [Example 103, (R)—N-methyl-3-(6-methyl-2,3-dihydro-1H-pyrrolo[3,2-b]pyridin-1-yl)-3-(thiophen-3-yl)propan-1-amine] | > 1000 | 100 to 500
6 | CNCCC(c1ccsc1)N1CC(C)(C)c2nc(C#N)ccc21 (stereo not drawn) [Example 104, 3,3-Dimethyl-1-(3-(methylamino)-1-(thiophen-3-yl)propyl)-2,3-dihydro-1H-pyrrolo[3,2-b]pyridine-5-carbonitrile Hydrochloride] | > 1000 | 100 to 500
7 | CNCC[C@@H](c1cccs1)N1CC(C)(C)c2ncc(F)cc21 [Example 105, (S)-3-(6-Fluoro-3,3-dimethyl-2,3-dihydro-1H-pyrrolo[3,2-b]pyridin-1-yl)-N-methyl-3-(thiophen-2-yl)propan-1-amine] | > 1000 | 500 to 3000
8 | CNCC[C@H](c1cccs1)N1CC(C)(C)c2ncc(F)cc21 [Example 106, (R)-3-(6-fluoro-3,3-dimethyl-2,3-dihydro-1H-pyrrolo[3,2-b]pyridin-1-yl)-N-methyl-3-(thiophen-2-yl)propan-1-amine] | > 1000 | < 100
9 | CNCC[C@@H](c1ccsc1)N1CC(C)(C)c2nc(C(F)(F)F)ccc21 [Example 107, (S)-3-(3,3-Dimethyl-5-(trifluoromethyl)-2,3-dihydro-1H-pyrrolo[3,2-b]pyridin-1-yl)-N-methyl-3-(thiophen-3-yl)propan-1-amine] | 100 to 500 | 100 to 500
10 | CNCC[C@H](c1ccsc1)N1CC(C)(C)c2nc(C(F)(F)F)ccc21 [Example 108, (R)-3-(3,3-dimethyl-5-(trifluoromethyl)-2,3-dihydro-1H-pyrrolo[3,2-b]pyridin-1-yl)-N-methyl-3-(thiophen-3-yl)propan-1-amine] | > 1000 | 100 to 500
11 | CNCC[C@@H](c1cccs1)N1CC(C)(C)c2ncc(Cl)cc21 [Example 109, (S)-3-(6-Chloro-3,3-dimethyl-2,3-dihydro-1H-pyrrolo[3,2-b]pyridin-1-yl)-N-methyl-3-(thiophen-2-yl)propan-1-amine] | > 1000 | ≥ 3000
12 | CNCC[C@H](c1cccs1)N1CC(C)(C)c2ncc(Cl)cc21 [Example 110, (R)-3-(6-chloro-3,3-dimethyl-2,3-dihydro-1H-pyrrolo[3,2-b]pyridin-1-yl)-N-methyl-3-(thiophen-2-yl)propan-1-amine] | > 1000 | 100 to 500
13 | CNCC[C@@H](c1cccs1)N1CCc2c(C#N)cccc21 [Example 111, (S)-1-(3-(Methylamino)-1-(thiophen-2-yl)propyl)indoline-4-carbonitrile] | < 100 | 500 to 3000
14 | CNCC[C@@H](c1cccs1)N1CCc2c(C#N)cccc21 [Example 112, (S)-1-(3-(methylamino)-1-(thiophen-2-yl)propyl)indoline-4-carbonitrile] | > 1000 | 100 to 500
15 | CNCC[C@@H](c1cccs1)N1CC(C)(C)c2nc(OC)ccc21 [Example 113, (S)-3-(5-Methoxy-3,3-dimethyl-2,3-dihydro-1H-pyrrolo[3,2-b]pyridin-1-yl)-N-methyl-3-(thiophen-2-yl)propan-1-amine] | 500 to 1000 | 500 to 3000
16 | CNCC[C@H](c1cccs1)N1CC(C)(C)c2nc(OC)ccc21 [Example 114, (R)-3-(5-methoxy-3,3-dimethyl-2,3-dihydro-1H-pyrrolo[3,2-b]pyridin-1-yl)-N-methyl-3-(thiophen-2-yl)propan-1-amine] | > 1000 | 100 to 500
17 | CNCC[C@@H](c1cccs1)N1c2ccccc2C[C@H]1C [Example 117, (S)—N-methyl-3-((R)-2-methylindolin-1-yl)-3-(thiophen-2-yl)propan-1-amine] | < 100 | ≥ 3000
18 | CNCC[C@H](c1cccs1)N1c2ccccc2C[C@@H]1C [Example 118, (R)—N-methyl-3-((S)-2-methylindolin-1-yl)-3-(thiophen-2-yl)propan-1-amine] | > 1000 | ≥ 3000
